O=C1Nc2ccccc2C1=O
Conditions	solubility (mole fraction)
in 1,4-dioxane, 293.15 K	0.0162
in 1,4-dioxane, 298.15 K	0.0188
in 1,4-dioxane, 303.15 K	0.0218
in 1,4-dioxane, 308.15 K	0.0252
in 1,4-dioxane, 313.15 K	0.029
in 1,4-dioxane, 318.15 K	0.0331
in 1,4-dioxane, 323.15 K	0.0378
in 1,4-dioxane, 328.15 K	0.0428
in 1,4-dioxane, 333.15 K	0.0484
in DMF, 283.15 K	0.127
in DMF, 288.25 K	0.135
in DMF, 293.25 K	0.143
in DMF, 298.15 K	0.151
in DMF, 303.15 K	0.16
in DMF, 308.25 K	0.17
in DMF, 313.25 K	0.179
in DMF, 318.45 K	0.19
in DMF, 323.15 K	0.198
in DMF, 328.15 K	0.209
in DMF, 333.15 K	0.218
in THF, 289.85 K	0.0197
in THF, 297.15 K	0.0234
in THF, 301.15 K	0.0254
in THF, 305.15 K	0.028
in THF, 308.95 K	0.0301
in THF, 314.05 K	0.0335
in THF, 318.35 K	0.0367
in THF, 323.15 K	0.0399
in acetone, 287.25 K	0.0109
in acetone, 292.75 K	0.0125
in acetone, 298.45 K	0.014
in acetone, 302.65 K	0.0158
in acetone, 308.35 K	0.0174
in acetone, 312.65 K	0.0193
in acetone, 318.15 K	0.0217
in acetone, 323.35 K	0.0241
in acetonitrile, 283.15 K	0.0042
in acetonitrile, 288.35 K	0.00498
in acetonitrile, 294.65 K	0.00608
in acetonitrile, 298.15 K	0.00675
in acetonitrile, 303.15 K	0.00789
in acetonitrile, 308.15 K	0.00893
in acetonitrile, 313.15 K	0.0103
in acetonitrile, 318.15 K	0.0118
in acetonitrile, 323.15 K	0.0136
in dichloromethane, 278.15 K	0.000788
in dichloromethane, 282.35 K	0.000876
in dichloromethane, 286.25 K	0.000982
in dichloromethane, 290.55 K	0.0011
in dichloromethane, 293.15 K	0.0012
in dichloromethane, 296.95 K	0.00132
in dichloromethane, 299.85 K	0.00141
in dichloromethane, 303.25 K	0.00153
in dichloromethane, 307.65 K	0.0017
in ethyl acetate, 288.15 K	0.00421
in ethyl acetate, 293.35 K	0.0048
in ethyl acetate, 298.25 K	0.00565
in ethyl acetate, 303.65 K	0.00637
in ethyl acetate, 308.65 K	0.00733
in ethyl acetate, 313.35 K	0.00822
in ethyl acetate, 318.15 K	0.0092
in ethyl acetate, 323.35 K	0.0103
in toluene, 288.15 K	0.000588
in toluene, 293.15 K	0.000637
in toluene, 298.15 K	0.000685
in toluene, 303.15 K	0.000714
in toluene, 308.15 K	0.000771
in toluene, 313.15 K	0.000819
in toluene, 318.15 K	0.000884
in toluene, 323.15 K	0.000926
